Data taken from ChEMBL document CHEMBL1141325, “Pinpointing pseurotins from a marine-derived Aspergillus as tools for chemical genetics using a synthetic lethality yeast screen” (2007).
Activity calls are given as the source filed them. The rule behind the calls is not given here.

What was measured:
Saccharomyces cerevisiae [1] = assay: Cytotoxicity against wild-type Saccharomyces cerevisiae hof1delta mutant by yeast halo assay relative to control; format: functional
Saccharomyces cerevisiae [2] = assay: Cytotoxicity against wild-type Saccharomyces cerevisiae by yeast halo assay relative to control; format: functional

SMILES | Activity (Saccharomyces cerevisiae [1]) | Activity (Saccharomyces cerevisiae [2]) | inhibition zone (IZ) (Saccharomyces cerevisiae [1]) [mm] | inhibition zone (IZ) (Saccharomyces cerevisiae [2]) [mm]
CC/C=C\[C@H](O)[C@H](O)C1=C(C)C(=O)[C@]2(O1)C(=O)N[C@@](OC)(C(=O)c1ccccc1)[C@@H]2O | inactive | inactive |  | 
CC/C=C\[C@H](OC)[C@H](O)C1=C(C)C(=O)[C@]2(O1)C(=O)N[C@@](OC)(C(=O)c1ccccc1)[C@@H]2O [11-O-METHYLPSEUROTIN A] |  |  | 9 | 4
